Experimental data reported in US12642794B2, “Dose regimens for use of LY3154207 in the treatment of dopaminergic CNS disorders” (Eli Lilly and Company, priority 2018, dated 2026).

Assays:
[1] = tested on: adult rhesus monkey; test: Spatial Delayed Response Task, spatial working memory; type: in vivo, rhesus macaque
[2] = tested on: adult rhesus monkey; test: as above; type: in vivo, rhesus macaque; settings: for spatial working memory performance after repeat of the dose: 2.5 mg/kg on Day 1 and repeated on Day 5
Procedure: Experimental Overview: A group of both aged and non-aged animals was tested at a single dose of 2.5 mg/kg and their performance was followed daily for the first six days and on alternate days thereafter. This was to ascertain that we could repeat the effects we observed previously at the lowest possible dose. The effects of repeating this dose on Day 5, at the […] mark, were examined in order to determine whether (i) an immediate diminution in performance could still be seen the next day and (ii) whether the treatment could achieve a relatively consistent and enduring enhancement of performance in the following days. Since this dose was also capable of inducing a short term deficit in performance, the effects of single administrations at lower doses of 0.1 and 1.0 mg/kg were examined.
All animals were rhesus macaques except one stumptail (Macaca arctoides). Details of the animal demographics are given with each set of results. It was desired to have younger animals in each study, however a preponderance of aged animals were studied, and females outnumbered males by 2 or 3 to one. The Spatial Delayed Response Task is established as one of the most reliable, sensitive, and valuable models in which to test spatial working memory in primates. The Spatial Delayed Response Task is implemented rigidly in a completely systematic format that is uniform within and between animals and between studies. The Spatial Delayed Response Task is designed to normalize performance across animals such they all normally perform at ˜70% correct. The Spatial Delayed Response Task directly challenges the same spatial working memory circuitry in human and nonhuman primates, including dorsolateral prefrontal cortex, posterior parietal cortex and MD thalamus. The Spatial Delayed Response Task is sensitive to multiple neuropharmacological manipulations, whether administered locally or systemically, including dopaminergic, nicotinic, glutamatergic, and GABAergic agents. In this task one of several well locations are baited with food in view of the animal and then covered with identical plaques. An opaque shutter is then lowered for one of 5 variable delays, and then raised to allow the animal to make a response to one of the well locations to retrieve the food treat. Each animal is stabilized (65-75% correct ±≤2.5%) prior to commencing any administration by varying the number of wells and the lengths of the delay. Each testing session consists of 20 trials, 4 trials at each of 5 delays (distributed semi-randomly) ranging from 0, 1, 2, 3, and 4 N seconds, where N is incremented from 1 to 10 according to ability. The number of wells ranges for 2 to 7 and thus stability is achieved by gradually varying the number of wells and the N factor. Original baseline is achieved on initial training and is standardized over twenty sessions, thereafter an animal typically undergoes regular testing to ensure a reasonably stable baseline. An absolute minimum of three baseline sessions are required prior to any experimental condition. Animals are not food deprived but instead reward for correct responses with their most preferred treats (such as yoghurt raisins, gummy bears, and almonds) and then fed their normal ration of nutritional biscuits shortly after cognitive testing.
DPTQ was formulated as a suspension in 20% Captisol/PBS at pH8. Great care was taken to protect the compound in sonication and it was injected (at a volume of 0.2 ml/kg) via a 21G hypodermic needle (to avoid blockage) into the gluteus maximus within 2 hours of formulation (kept on ice). Vehicle was refrigerated in sterile injectable vials for up to one month. Animals were fully acclimated to all procedures prior to enrollment into any study. They were assigned on a readiness for study basis and where relevant, assignment was semirandom between vehicle and treatment arms. IM injections were performed in the animals' home cage 1 hour prior to cognitive testing. […]

Q: For `C[C@H]1c2cccc(CC(C)(C)O)c2C[C@H](CO)N1C(=O)Cc1c(Cl)cccc1Cl` [DPTQ, 2-(2,6-dichlorophenyl)-1-((1S,3R)-5-(2-hydroxy-2-methylpropyl)-3-(hydroxymethyl)-1-methyl-3,4-dihydroisoquinolin-2 (1H)-yl) ethan-1-one], which “acute effect on spatial working memory performance” value ([1]; acute doses of 2.5 to 10 mg/kg IM) is on record?
A: The value was “trend in reducing spatial working memory performance”.

Q: And the “protection against ketamine induced cognitive deficits” value ([1]; rhesus monkey, in vivo)?
A: The value was “little effect”.

Q: What about the “diminution in spatial working memory performance” value ([2]; 0.1 mg/kg) of the same molecule?
A: Its value is “No sign of any diminution in performance”.

Q: And the “enhancement of spatial working memory performance” value (shortened to “enhancement”) ([2]; 0.1 mg/kg, 2-week period)?
A: The value was “modest”.

Q: And the “spatial working memory performance versus baseline” value ([2]; 0.1 mg/kg, Day 4)?
A: Its value is “significant improvement over baseline”.

Q: What about the “early deficit in spatial working memory” value ([2]; 1.0 mg/kg) of the same molecule?
A: The value was “not evident”.

Q: And the “enhancement” value ([2]; 1.0 mg/kg, significance on Day 5)?
A: Its value is “stronger than for the 0.1 mg/kg dose”.

Q: What about the “effect on spatial working memory performance” value ([2]; 2.5 mg/kg IM, Day 1) of the same molecule?
A: Its value is “No immediate effect”.

Q: And the “impairment of spatial working memory performance” value ([2]; 2.5 mg/kg IM, Day 3)?
A: Its value is ~10%.

Q: And the “enhancement” value ([2]; 2.5 mg/kg IM, starting from Day 4, prolonged)?
A: The value was ~10%.

Q: And the “duration of sustained positive effect” value ([2]; 2.5 mg/kg and above)?
A: The value was ≥ 14 days.

Q: And the “spatial working memory performance after repeat of the dose” value ([2]; Day 6)?
A: The value was “distinctive drop in performance”.

Q: And the “spatial working memory performance after repeat of the dose” value ([2]; after Day 6)?
A: The value was “enhancement for the subsequent week”.

Q: What about the “difference between aged and non-aged animals” value ([2]; 2.5 mg/kg, combined scores for Days 4, 5, and 6) of the same molecule?
A: Its value is “No significant difference”.

Q: What about the “spatial working memory performance” value ([2]; 24 to 48 hours post injection) of the same molecule?
A: Its value is “substantially impaired”.

Q: And the “spatial working memory performance” value ([2]; 96 to 120 hours post injection)?
A: Its value is “considerably enhanced”.
